The values that follow come from patent US10300176B2, “Catheter lock solution formulations” (Medline Industries, Inc., priority 2013, dated 2019).

This data set in a line: break through pressure or vacuum level after exhaustive drying of lock formulations in simulated silicone catheter tubing. The conditions noted are these: excipient at approximately 1% by weight. In kind it is physicochemical. The source says:
FIG. 1 is a view of a sphygmomanometer 10 connected to a syringe 12. The sphygmomanometer 10 includes a gauge 14 with a visual display 16 to measure the pressure or vacuum level. The sphygmomanometer 10 and the syringe 12 were used to measure the break through pressure or vacuum level.
Long silicone rubber commercial catheter extension tubing segments spliced together, or a single small bore with a 1.5 mm inner diameter clear, and very soft laboratory silicone rubber tubing of about 15 inch in length were used for evaluation. Formulations of 30% weight per volume (w/v) ethanol and 4% weight per weight (w/w) tri-sodium citrate with candidate biocompatible excipients were prepared and charged into the lumens of simulated catheter tubings and capped with solid plugs. The samples were first dried near a de-humidifier for about 24 hours to allow evaporation of most ethanol before being placed into a clear polycarbonate drying column connected in series with a large Drierite® desiccant column. The columns were also fitted with a gas flow meter and a diaphragm gas pump to provide closed loop gas circulation at about 4 liter per minute (min-1). […] Both the pressure (+) or vacuum (−) levels to cause the liquid or solid plug movement were measured when subjected to actuation movements from a small air filled syringe 12 connected to a sphygmomanometer 10. […]

`OCC(O)CO` [glycerol]: the “effectiveness of excipient in words” value is “conditionally acceptable” and the time free flowing result is given as “greater than 7 days”.
